Results taken from patent US10238638B2, “Benzothiazole and benzothiophene compounds” (Bristol-Myers Squibb Company, priority 2015, dated 2019).

Target: PAR4 (Homo sapiens (Human), UniProt Q96RI0)
Assay: FLIPR assay in PAR4-expressing HEK293 cells (calcium mobilization)
Format: cell-based
Details: H-Ala-Phe(4-F)-Pro-Gly-Trp-Leu-Val-Lys-Asn-Gly-NH2-induced calcium mobilization, PAR4 antagonist activity
Source text: The FLIPR assay is an exemplary in vitro assay for measuring the activity of the PAR4 antagonists of the present invention. In this assay, intracellular calcium mobilization is induced in PAR4 expressing cells by a PAR4 agonist and calcium mobilization is monitored.
HEK293 cells stably expressing PAR4 were generated by a standard method of transfection of human PAR4 (F2R23) cDNA expression vector and selected based on PAR4 protein expression or mRNA expression. […] Therefore, the same cells were also used to determine selectivity against PAR1 and agonist activity for both receptors.
FLIPR-based calcium mobilization assay in HEK293 cells was used to measure PAR4 antagonism, agonism, and selectivity against PAR1. […] Counter screens for agonist activity and PAR1 antagonist activity were also performed. Briefly, PAR1/PAR4-expressing HEK293 cells were grown in DMEM (Life Technology, Grand Island, N.Y.) containing 10% heat-inactivated FBS, 1% Penicillin-Streptomycin, 10 μg/mL blasticidin, and 100 μg/mL Zeocin at 37° C. with 5% CO2. Cells were plated overnight prior to the experiment in a black 384-well Purecoat Amine clear bottom plate (Becton Dickinson Biosciences, San Jose, Calif.) at 10,000 cells/well in 30 μL growth medium and incubated in a humidified chamber at 37° C. with 5% CO2 overnight. Prior to compound addition, the cell medium was replaced with 40 μL of 1× calcium and magnesium-containing Hank's Balanced Saline Solution (HBSS) (with 20 mM HEPES) and 1:1000 diluted fluorescent calcium indicator (Codex Biosolutions, Gaithersburg, Md.). After a 30 minute incubation period at 37° C. and a further 30 minute incubation and equilibration period at room temperature, 20 μL test compound (diluted in 1×HBSS buffer) was added at various concentrations at 0.17% dimethyl sulfoxide (DMSO) final concentration. Changes in fluorescence intensity were measured using a Functional Drug Screening System (FDSS, Hamamatsu, Japan) to determine agonist activities. The cells were then incubated for 30 minutes at room temperature followed by addition of 20 μL of agonist peptide for antagonist activity measurement. […] Compound potency was derived from 11-point concentration-response curves.

PAR4, sequence (Q96RI0 18-385): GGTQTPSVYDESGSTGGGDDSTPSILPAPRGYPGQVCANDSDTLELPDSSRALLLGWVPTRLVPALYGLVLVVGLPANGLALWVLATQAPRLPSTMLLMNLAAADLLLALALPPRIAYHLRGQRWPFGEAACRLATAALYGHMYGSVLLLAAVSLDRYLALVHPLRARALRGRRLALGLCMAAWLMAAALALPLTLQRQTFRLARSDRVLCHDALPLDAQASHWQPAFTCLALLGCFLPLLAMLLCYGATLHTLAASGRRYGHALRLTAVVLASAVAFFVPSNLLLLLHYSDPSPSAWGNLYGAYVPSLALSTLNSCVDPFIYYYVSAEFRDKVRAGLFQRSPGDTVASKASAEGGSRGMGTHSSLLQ

IC50 [µM] | SMILES
2.4 | COc1cc(OCc2csc(-c3ccc(C(=O)OC(C)(C)C)cc3)n2)c2sc(-c3cn4nc(C)sc4n3)nc2c1 [Example 1, tert-Butyl 4-(4-(((5-methoxy-2-(2-methylimidazo[2,1-b][1,3,4]thiadiazol-6-yl)benzo[d]thiazol-7-yl)oxy)methyl)thiazol-2-yl)benzoate]
45 | COc1cc(OCc2csc(-c3ccc(C(=O)O)cc3)n2)c2sc(-c3cn4nc(C)sc4n3)nc2c1 [Example 2, 4-(4-(((5-Methoxy-2-(2-methylimidazo[2,1-b][1,3,4]thiadiazol-6-yl)benzo[d]thiazol-7-yl)oxy)methyl)thiazol-2-yl)benzoic acid]
3.6 | COc1cc(OCc2csc(-c3ccc(C(=O)N(C)[C@H]4CCOC4)cc3)n2)c2sc(-c3cn4nc(C)sc4n3)nc2c1 [Example 3, (S)-4-(4-(((5-methoxy-2-(2-methylimidazo[2,1-b][1,3,4]thiadiazol-6-yl)benzo[d]thiazol-7-yl)oxy)methyl)thiazol-2-yl)-N-methyl-N-(tetrahydrofuran-3-yl)benzamide]
4.2 | COc1cc(OCc2csc(-c3ccc(C(=O)N4CCC[C@H](O)C4)cc3)n2)c2sc(-c3cn4nc(C)sc4n3)nc2c1 [Example 4]
1.1 | COc1cc(OCc2csc(-c3ccc(C(=O)N(C)CC#N)cc3)n2)c2sc(-c3cn4nc(C)sc4n3)nc2c1 [Example 5, N—(Cyanomethyl)-4-(4-(((5-methoxy-2-(2-methylimidazo[2,1-b][1,3,4]thiadiazol-6-yl)benzo[d]thiazol-7-yl)oxy)methyl)thiazol-2-yl)-N-methylbenzamide]
3.8 | COc1cc(OCc2csc(-c3ccc(C(=O)N(C)C)cc3)n2)c2sc(-c3cn4nc(C)sc4n3)nc2c1 [Example 6, 4-(4-(((5-Methoxy-2-(2-methylimidazo[2,1-b][1,3,4]thiadiazol-6-yl)benzo[d]thiazol-7-yl)oxy)methyl)thiazol-2-yl)-N,N-dimethylbenzamide]
30 | COc1cc(OCc2csc(-c3ccc(C(=O)N(CCO)C(C)(C)C)cc3)n2)c2sc(-c3cn4nc(C)sc4n3)nc2c1 [Example 7]
1.8 | COc1cc(OCc2csc(-c3ccc(C(=O)N4CC[C@@H](CO)C4)cc3)n2)c2sc(-c3cn4nc(C)sc4n3)nc2c1 [Example 8]
0.33 | COc1cc(OCc2csc(-c3ccc(C(=O)N4CCOC[C@H]4CO)cc3)n2)c2sc(-c3cn4nc(C)sc4n3)nc2c1 [Example 9, (R)-(3-(Hydroxymethyl)morpholino)(4-(4-(((5-methoxy-2-(2-methylimidazo[2,1-b][1,3,4]thiadiazol-6-yl)benzo[d]thiazol-7-yl)oxy)methyl)thiazol-2-yl)phenyl)methanone]
0.98 | COc1cc(OCc2csc(-c3ccc(C(=O)N(C)C4CCOCC4)cc3)n2)c2sc(-c3cn4nc(C)sc4n3)nc2c1 [Example 10, 4-(4-(((5-Methoxy-2-(2-methylimidazo[2,1-b][1,3,4]thiadiazol-6-yl)benzo[d]thiazol-7-yl)oxy)methyl)thiazol-2-yl)-N-methyl-N-(tetrahydro-2H-pyran-4-yl)benzamide]
1.4 | COc1cc(OCc2csc(-c3ccc(C(=O)N4CCOC[C@@H]4CO)cc3)n2)c2sc(-c3cn4nc(C)sc4n3)nc2c1 [Example 11, (S)-(3-(Hydroxymethyl)morpholino)(4-(4-(((5-methoxy-2-(2-methylimidazo[2,1-b][1,3,4]thiadiazol-6-yl)benzo[d]thiazol-7-yl)oxy)methyl)thiazol-2-yl)phenyl)methanone]
87 | COc1cc(OCc2csc(-c3ccc(C(=O)O)cc3)n2)c2sc(-c3cn4nc(C(C)(F)F)sc4n3)nc2c1 [Example 14, 4-(4-(((2-(2-(1,1-Difluoroethyl)imidazo[2,1-b][1,3,4]thiadiazol-6-yl)-5-methoxybenzo[d]thiazol-7-yl)oxy)methyl)thiazol-2-yl)benzoic acid]
3.7 | COc1cc(OCc2csc(-c3ccc(C(=O)N(C)[C@H]4CCOC4)cc3)n2)c2sc(-c3cn4nc(C(C)(F)F)sc4n3)nc2c1 [Example 15, (S)-4-(4-(((2-(2-(1,1-Difluoroethyl)imidazo[2,1-b][1,3,4]thiadiazol-6-yl)-5-methoxybenzo[d]thiazol-7-yl)oxy)methyl)thiazol-2-yl)-N-methyl-N-(tetrahydrofuran-3-yl)benzamide]
15 | COc1cc(OCc2csc(-c3ccc(C(=O)N4CCC[C@H](O)C4)cc3)n2)c2sc(-c3cn4nc(C(C)(F)F)sc4n3)nc2c1 [Example 16, (S)-(4-(4-(((2-(2-(1,1-Difluoroethyl)imidazo[2,1-b][1,3,4]thiadiazol-6-yl)-5-methoxybenzo[d]thiazol-7-yl)oxy)methyl)thiazol-2-yl)phenyl)(3-hydroxypiperidin-1-yl)methanone]
2.6 | COc1cc(OCc2csc(-c3ccc(C(=O)N(C)CC#N)cc3)n2)c2sc(-c3cn4nc(C(C)(F)F)sc4n3)nc2c1 [Example 17, N—(Cyanomethyl)-4-(4-(((2-(2-(1,1-difluoroethyl)imidazo[2,1-b][1,3,4]thiadiazol-6-yl)-5-methoxybenzo[d]thiazol-7-yl)oxy)methyl)thiazol-2-yl)-N-methylbenzamide]
5.1 | COc1cc(OCc2csc(-c3ccc(C(=O)N(C)C)cc3)n2)c2sc(-c3cn4nc(C(C)(F)F)sc4n3)nc2c1 [Example 18, 4-(4-(((2-(2-(1,1-difluoroethyl)imidazo[2,1-b][1,3,4]thiadiazol-6-yl)-5-methoxybenzo[d]thiazol-7-yl)oxy)methyl)thiazol-2-yl)-N,N-dimethylbenzamide]
81 | COc1cc(OCc2csc(-c3ccc(C(=O)N(CCO)C(C)(C)C)cc3)n2)c2sc(-c3cn4nc(C(C)(F)F)sc4n3)nc2c1 [Example 19, N-(tert-Butyl)-4-(4-(((2-(2-(1,1-difluoroethyl)imidazo[2,1-b][1,3,4]thiadiazol-6-yl)-5-methoxybenzo[d]thiazol-7-yl)oxy)methyl)thiazol-2-yl)-N-(2-hydroxyethyl)benzamide]
1.2 | COc1cc(OCc2csc(-c3ccc(C(=O)N4CC[C@@H](CO)C4)cc3)n2)c2sc(-c3cn4nc(C(C)(F)F)sc4n3)nc2c1 [Example 20, (R)-(4-(4-(((2-(2-(1,1-Difluoroethyl)imidazo[2,1-b][1,3,4]thiadiazol-6-yl)-5-methoxybenzo[d]thiazol-7-yl)oxy)methyl)thiazol-2-yl)phenyl)(3-(hydroxymethyl)pyrrolidin-1-yl)methanone]
0.92 | COc1cc(OCc2csc(-c3ccc(C(=O)N4CCOC[C@H]4CO)cc3)n2)c2sc(-c3cn4nc(C(C)(F)F)sc4n3)nc2c1 [Example 21, (R)-(4-(4-(((2-(2-(1,1-Difluoroethyl)imidazo[2,1-b][1,3,4]thiadiazol-6-yl)-5-methoxybenzo[d]thiazol-7-yl)oxy)methyl)thiazol-2-yl)phenyl)(3-(hydroxymethyl)morpholino)methanone]
0.76 | COc1cc(OCc2csc(-c3ccc(C(=O)N(C)C4CCOCC4)cc3)n2)c2sc(-c3cn4nc(C(C)(F)F)sc4n3)nc2c1 [Example 22, 4-(4-(((2-(2-(1,1-Difluoroethyl)imidazo[2,1-b][1,3,4]thiadiazol-6-yl)-5-methoxybenzo[d]thiazol-7-yl)oxy)methyl)thiazol-2-yl)-N-methyl-N-(tetrahydro-2H-pyran-4-yl)benzamide]
